Source: the supplement of paper PMC10307832

Columns and labels:
Experiment in all cases: relative viability (nuclei count vs DMSO), 5 days (fraction); higher = more cells survive
EPLC-272H = tested on: EPLC-272H
How it was run: (§1)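 Relative viability equals treated-well nuclei counts divided by vehicle-well nuclei counts. Counts came from 4× images of lung cancer cell lines grown in 1536-well plates for 5 days after pin-tool dosing on the day after seeding. Dosing used one drug alone or a fixed anchor-drug dose plus five library-drug doses (not always all listed) in √10 steps, and values are medians of duplicate plates.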

COR-L 105 = tested on: COR-L 105
How it was run: as §1

NCI-H2085 = tested on: NCI-H2085
How it was run: as §1

HCC-827 = tested on: HCC-827
How it was run: as §1

HCC-44 = tested on: HCC-44
How it was run: as §1

NCI-H2087 = tested on: NCI-H2087
How it was run: as §1

NCI-H1666 = tested on: NCI-H1666
How it was run: as §1

NCI-H1437 = tested on: NCI-H1437
How it was run: as §1

NCI-H650 = tested on: NCI-H650
How it was run: as §1

201T = tested on: 201T
How it was run: as §1

NCI-H1975 = tested on: NCI-H1975
How it was run: as §1

LCLC-97TM1 = tested on: LCLC-97TM1
How it was run: as §1

BEN = tested on: BEN
How it was run: as §1

NCI-H647 = tested on: NCI-H647
How it was run: as §1

NCI-H2342 = tested on: NCI-H2342
How it was run: as §1

LOU-NH91 = tested on: LOU-NH91
How it was run: as §1

LU99A = tested on: LU99A
How it was run: as §1

H3255 = tested on: H3255
How it was run: as §1

NCI-H2170 = tested on: NCI-H2170
How it was run: as §1

EKVX = tested on: EKVX
How it was run: as §1

PC-3 [JPC-3] = tested on: PC-3 [JPC-3]
How it was run: as §1

SW 1573 = tested on: SW 1573
How it was run: as §1

O=c1cc(-c2cccc3c2Sc2ccccc2S3)oc(N2CCOCC2)c1 + Cc1cc(Nc2cc(N3CCN(C)CC3)nc(Sc3ccc(NC(=O)C4CC4)cc3)n2)n[nH]1 [Tozasertib] (partner 0.1 µM)
relative viability (EPLC-272H; first compound 0.08 µM): 0.238
relative viability (EPLC-272H; first compound 0.253 µM): 0.193
relative viability (EPLC-272H; first compound 0.8 µM): 0.299
relative viability (EPLC-272H; first compound 2.53 µM): 0.237
relative viability (EPLC-272H; first compound 8 µM): 0.236
relative viability (COR-L 105; first compound 0.08 µM): 0.319
relative viability (COR-L 105; first compound 0.253 µM): 0.357
relative viability (COR-L 105; first compound 0.8 µM): 0.32
relative viability (COR-L 105; first compound 2.53 µM): 0.363
relative viability (COR-L 105; first compound 8 µM): 0.414
relative viability (NCI-H2085; first compound 0.08 µM): 0.778
relative viability (NCI-H2085; first compound 0.253 µM): 0.724
relative viability (NCI-H2085; first compound 0.8 µM): 0.768
relative viability (NCI-H2085; first compound 2.53 µM): 0.579
relative viability (NCI-H2085; first compound 8 µM): 0.551
relative viability (HCC-827; first compound 0.08 µM): 0.462
relative viability (HCC-827; first compound 0.253 µM): 0.409
relative viability (HCC-827; first compound 0.8 µM): 0.46
relative viability (HCC-827; first compound 2.53 µM): 0.415
relative viability (HCC-827; first compound 8 µM): 0.437
relative viability (HCC-44; first compound 0.08 µM): 0.888
relative viability (HCC-44; first compound 0.253 µM): 1.01
relative viability (HCC-44; first compound 2.53 µM): 0.717
relative viability (HCC-44; first compound 8 µM): 0.54
relative viability (NCI-H2087; first compound 0.08 µM): 0.231
relative viability (NCI-H2087; first compound 0.253 µM): 0.282
relative viability (NCI-H2087; first compound 0.8 µM): 0.266
relative viability (NCI-H2087; first compound 2.53 µM): 0.191
relative viability (NCI-H2087; first compound 8 µM): 0.171
relative viability (NCI-H1666; first compound 0.08 µM): 0.612
relative viability (NCI-H1666; first compound 0.253 µM): 0.603
relative viability (NCI-H1666; first compound 0.8 µM): 0.625
relative viability (NCI-H1666; first compound 2.53 µM): 0.539
relative viability (NCI-H1666; first compound 8 µM): 0.615
relative viability (NCI-H1437; first compound 0.08 µM): 0.385
relative viability (NCI-H1437; first compound 0.253 µM): 0.477
relative viability (NCI-H1437; first compound 0.8 µM): 0.43
relative viability (NCI-H1437; first compound 2.53 µM): 0.381
relative viability (NCI-H1437; first compound 8 µM): 0.435
relative viability (NCI-H650; first compound 0.08 µM): 0.641
relative viability (NCI-H650; first compound 0.253 µM): 0.662
relative viability (NCI-H650; first compound 0.8 µM): 0.758
relative viability (NCI-H650; first compound 8 µM): 0.708
relative viability (201T; first compound 0.08 µM): 0.945
relative viability (201T; first compound 0.253 µM): 0.982
relative viability (201T; first compound 0.8 µM): 1.04
relative viability (201T; first compound 2.53 µM): 0.923
relative viability (201T; first compound 8 µM): 0.753
relative viability (NCI-H1975; first compound 0.08 µM): 0.867
relative viability (NCI-H1975; first compound 0.253 µM): 0.803
relative viability (NCI-H1975; first compound 0.8 µM): 0.653
relative viability (NCI-H1975; first compound 2.53 µM): 0.341
relative viability (NCI-H1975; first compound 8 µM): 0.299
relative viability (LCLC-97TM1; first compound 0.08 µM): 0.223
relative viability (LCLC-97TM1; first compound 0.253 µM): 0.22
relative viability (LCLC-97TM1; first compound 0.8 µM): 0.205
relative viability (LCLC-97TM1; first compound 2.53 µM): 0.228
relative viability (LCLC-97TM1; first compound 8 µM): 0.207
relative viability (BEN; first compound 0.08 µM): 0.724
relative viability (BEN; first compound 0.253 µM): 0.487
relative viability (BEN; first compound 0.8 µM): 0.423
relative viability (BEN; first compound 2.53 µM): 0.456
relative viability (BEN; first compound 8 µM): 0.617
relative viability (NCI-H647; first compound 0.08 µM): 0.325
relative viability (NCI-H647; first compound 0.253 µM): 0.0459
relative viability (NCI-H647; first compound 0.8 µM): 0.224
relative viability (NCI-H647; first compound 2.53 µM): 0.171
relative viability (NCI-H647; first compound 8 µM): 0.462
relative viability (NCI-H2342; first compound 0.08 µM): 0.505
relative viability (NCI-H2342; first compound 0.253 µM): 0.495
relative viability (NCI-H2342; first compound 0.8 µM): 0.472
relative viability (NCI-H2342; first compound 2.53 µM): 0.532
relative viability (NCI-H2342; first compound 8 µM): 0.466
relative viability (LOU-NH91; first compound 0.08 µM): 0.652
relative viability (LOU-NH91; first compound 0.253 µM): 0.678
relative viability (LOU-NH91; first compound 0.8 µM): 0.638
relative viability (LOU-NH91; first compound 2.53 µM): 0.568
relative viability (LOU-NH91; first compound 8 µM): 0.679
relative viability (LU99A; first compound 0.08 µM): 0.279
relative viability (LU99A; first compound 0.253 µM): 0.252
relative viability (LU99A; first compound 0.8 µM): 0.28
relative viability (LU99A; first compound 2.53 µM): 0.285
relative viability (LU99A; first compound 8 µM): 0.296
relative viability (H3255; first compound 0.08 µM): 0.441
relative viability (H3255; first compound 0.253 µM): 0.604
relative viability (H3255; first compound 0.8 µM): 0.759
relative viability (H3255; first compound 2.53 µM): 0.686
relative viability (H3255; first compound 8 µM): 0.867
relative viability (NCI-H2170; first compound 0.08 µM): 0.78
relative viability (NCI-H2170; first compound 0.253 µM): 0.739
relative viability (NCI-H2170; first compound 0.8 µM): 0.894
relative viability (NCI-H2170; first compound 2.53 µM): 0.715
relative viability (NCI-H2170; first compound 8 µM): 0.676
relative viability (EKVX; first compound 0.08 µM): 0.517
relative viability (EKVX; first compound 0.253 µM): 0.376
relative viability (EKVX; first compound 0.8 µM): 0.451
relative viability (EKVX; first compound 2.53 µM): 0.377
relative viability (EKVX; first compound 8 µM): 0.412
relative viability (PC-3 [JPC-3]; first compound 0.08 µM): 0.861
relative viability (PC-3 [JPC-3]; first compound 0.253 µM): 0.871
relative viability (PC-3 [JPC-3]; first compound 0.8 µM): 0.827
relative viability (PC-3 [JPC-3]; first compound 2.53 µM): 0.805
relative viability (PC-3 [JPC-3]; first compound 8 µM): 0.714
relative viability (SW 1573; first compound 0.08 µM): 0.175
relative viability (SW 1573; first compound 0.253 µM): 0.186
relative viability (SW 1573; first compound 0.8 µM): 0.197
relative viability (SW 1573; first compound 2.53 µM): 0.175
relative viability (SW 1573; first compound 8 µM): 0.125
